In ChEMBL document CHEMBL5506038, “Discovery of LC-MI-3: A Potent and Orally Bioavailable Degrader of Interleukin-1 Receptor-Associated Kinase 4 for the Treatment of Inflammatory Diseases” (J Med Chem, 2024):
Blank lines part the entries; values can stand above or below the compound they belong to. Activity calls are given as the source filed them. No cut-off for these calls is given here.

How the values were obtained:
[1] = Drug metabolism in rat hepatocyte assessed as amide hydrolysis-mediated metabolite formation by LC-MS/MS analysis; format: ADME, cell-based; details: hepatocytes
[2] = biological target: T1, Interleukin-1 receptor-associated kinase 4 (Mus musculus) (UniProt Q8R4K2); experiment: Inhibition of IRAK4 in LPS-induced mouse RAW264.7 cells assessed as reduction in JNK level at 1 to 5 uM pretreated with LPS for 1 hr followed by compound administration and measured after 2 hrs by Western blotting analysis; format: cell-based; details: dose 1-5 µM
T1 sequence (whole entry): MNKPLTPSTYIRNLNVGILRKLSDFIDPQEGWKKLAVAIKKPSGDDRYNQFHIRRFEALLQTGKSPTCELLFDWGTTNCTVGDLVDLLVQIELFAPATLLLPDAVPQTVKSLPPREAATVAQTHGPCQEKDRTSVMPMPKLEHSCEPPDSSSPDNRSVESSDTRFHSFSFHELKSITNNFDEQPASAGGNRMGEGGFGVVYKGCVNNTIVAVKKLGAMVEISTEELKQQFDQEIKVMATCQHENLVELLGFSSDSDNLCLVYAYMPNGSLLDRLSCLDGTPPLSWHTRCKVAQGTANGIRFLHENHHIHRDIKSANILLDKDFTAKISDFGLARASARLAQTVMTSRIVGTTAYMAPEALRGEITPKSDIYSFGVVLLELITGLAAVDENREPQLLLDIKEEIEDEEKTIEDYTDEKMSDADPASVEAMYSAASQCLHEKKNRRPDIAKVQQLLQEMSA

[3] = biological target: T1, Interleukin-1 receptor-associated kinase 4 (Mus musculus); experiment: Inhibition of IRAK4 in LPS-induced mouse RAW264.7 cells assessed as reduction in ERK level at 1 to 5 uM pretreated with LPS for 1 hr followed by compound administration and measured after 2 hrs by Western blotting analysis; format: cell-based; details: dose 1-5 µM
[4] = biological target: T1, Interleukin-1 receptor-associated kinase 4 (Mus musculus); experiment: Inhibition of IRAK4 in LPS-induced mouse RAW264.7 cells assessed as reduction in p38 level at 1 to 5 uM pretreated with LPS for 1 hr followed by compound administration and measured after 2 hrs by Western blotting analysis; format: cell-based; details: dose 1-5 µM
[5] = biological target: T1, Interleukin-1 receptor-associated kinase 4 (Mus musculus); experiment: Inhibition of IRAK4 in LPS-induced mouse RAW264.7 cells assessed as effect on IkappaB-alpha level at 1 to 5 uM pretreated with LPS for 1 hr followed by compound administration and measured after 2 hrs by Western blotting analysis; format: cell-based; details: dose 1-5 µM
[6] = biological target: T1, Interleukin-1 receptor-associated kinase 4 (Mus musculus); experiment: Inhibition of IRAK4 in LPS-induced mouse RAW264.7 cells assessed as reduction in p65 nuclear translocation at 1 to 5 uM pretreated with LPS for 1 hr followed by compound administration and measured after 2 hrs by immunofluorescence analysis; format: cell-based; details: dose 1-5 µM
RAW264.7 [7] = experiment: Activation of NF-kappaB pathway in LPS-induced mouse RAW264.7 cells at 5 uM pretreated with compound for 1 hr followed by LPS-induction and measured after 6 hrs by flow cytometry analysis; format: cell-based; details: filed as activator, time 7.0 hrs
[8] = biological target: Protein cereblon/Interleukin-1 receptor-associated kinase 4 (Mus musculus) (UniProt Q8C7D2+Q8R4K2); experiment: PROTAC activity at IRAK4/CRBN in mouse BaF3 cells assessed as reduction in IRAK4 level at 100 nM incubated for 12 hrs by Western blot analysis relative to control; format: cell-based; set-up: scale not given: the % may be the effect or the level left
[9] = biological target: Mitogen-activated protein kinase kinase kinase 19 (Homo sapiens) (UniProt Q56UN5); experiment: Inhibition of YSK4 (unknown origin) at 1 uM relative to control
[10] = biological target: Mitogen-activated protein kinase kinase kinase kinase 4 (Homo sapiens) (UniProt O95819); experiment: Inhibition of MAP4K4 (unknown origin) at 1 uM relative to control
[11] = biological target: Dual specificity mitogen-activated protein kinase kinase 5 (Homo sapiens) (UniProt Q13163); experiment: Inhibition of MEK5 (unknown origin) at 1 uM relative to control
[12] = biological target: Citron Rho-interacting kinase (Homo sapiens) (UniProt O14578); experiment: Inhibition of CIT (unknown origin) at 1 uM relative to control
[13] = biological target: Tyrosine-protein kinase JAK1 (Homo sapiens) (UniProt P23458); experiment: Inhibition of JAK1 (unknown origin) at 1 uM relative to control
[14] = biological target: Tyrosine-protein kinase JAK3 (Homo sapiens) (UniProt P52333); experiment: Inhibition of JAK3 (unknown origin) at 1 uM relative to control
[15] = biological target: Serine/threonine-protein kinase RIO1 (Homo sapiens) (UniProt Q9BRS2); experiment: Inhibition of RIOK1 (unknown origin) at 1 uM relative to control
[16] = biological target: TRAF2 and NCK-interacting protein kinase (Homo sapiens) (UniProt Q9UKE5); experiment: Inhibition of TNIK (unknown origin) at 1 uM relative to control
[17] = biological target: Serine/threonine-protein kinase RIO3 (Homo sapiens) (UniProt O14730); experiment: Inhibition of RIOK3 (unknown origin) at 1 uM relative to control
[18] = biological target: Interleukin-1 receptor-associated kinase 1 (Homo sapiens) (UniProt P51617); experiment: Inhibition of IRAK1 (unknown origin) at 1 uM relative to control
[19] = biological target: MAP kinase p38 (Mus musculus) (UniProt P47811+O08911+Q9WUI1+Q9Z1B7); experiment: Inhibition of MAPK phosphorylation in LPS-induced mouse RAW264.7 cells at 1 uM pretreated with compound for 1 hr followed by LPS-induction and measured after 2 hrs by Western blot analysis; format: cell-based; details: time 3.0 hrs
RAW264.7 [20] = experiment: Activation of NF-kappaB pathway in LPS-induced mouse RAW264.7 cells expressing EGFP at 5 uM pretreated with compound for 1 hr followed by LPS-induction and measured after 6 hrs by flow cytometry analysis; format: cell-based; details: filed as activator, time 7.0 hrs
RAW264.7 [21] = experiment: Activation of NF-kappaB pathway in LPS-induced mouse RAW264.7 cells expressing EGFP at 5 uM pretreated with compound for 1 hr followed by LPS-induction and measured at 15 min by flow cytometry analysis; format: cell-based; details: filed as activator, time 75.0 min
Mus musculus = experiment: Anti-inflammatory activity against LPS-induced acute […] injury C57BL/6 mouse model assessed as reduction in ERK level at 20 mg/kg, IG pretreated with compound for 12 hrs followed by LPS-induction and measured after 6 hrs; format: functional, organism-based; details: time 18.0 hrs
[22] = biological target: T2, Interleukin-1 receptor-associated kinase 4 (Homo sapiens, UniProt Q9NWZ3); experiment: (§1) Inhibition of IRAK4 (unknown origin)
T2 sequence (Q9NWZ3 whole entry): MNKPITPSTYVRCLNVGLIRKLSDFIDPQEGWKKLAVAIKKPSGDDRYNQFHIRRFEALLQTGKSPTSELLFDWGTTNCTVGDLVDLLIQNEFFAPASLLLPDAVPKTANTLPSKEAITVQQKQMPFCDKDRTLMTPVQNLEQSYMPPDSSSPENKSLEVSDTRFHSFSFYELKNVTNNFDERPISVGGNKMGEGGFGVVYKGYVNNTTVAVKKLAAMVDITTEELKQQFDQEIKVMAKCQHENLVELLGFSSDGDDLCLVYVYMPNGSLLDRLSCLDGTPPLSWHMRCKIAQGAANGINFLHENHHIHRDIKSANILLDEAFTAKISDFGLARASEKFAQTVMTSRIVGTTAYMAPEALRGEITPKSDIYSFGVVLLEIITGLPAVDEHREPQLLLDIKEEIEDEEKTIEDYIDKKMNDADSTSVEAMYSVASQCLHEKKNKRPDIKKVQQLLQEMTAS

[23] = biological target: T3, Interleukin-1 receptor-associated kinase 4 (Homo sapiens) (UniProt Q9NWZ3); experiment: as §1
T3 sequence (whole entry): T2 sequence (Q9NWZ3 whole entry)

[24] = biological target: Protein cereblon/Interleukin-1 receptor-associated kinase 4 (Homo sapiens, UniProt Q9NWZ3+Q96SW2); experiment: PROTAC activity at IRAK4/CRBN in HEK293T cells assessed as induction of IRAK4 degradation by immunoblotting analysis; format: cell-based
Chain of Protein cereblon/Interleukin-1 receptor-associated kinase 4 (Q96SW2 whole entry, one chain of several): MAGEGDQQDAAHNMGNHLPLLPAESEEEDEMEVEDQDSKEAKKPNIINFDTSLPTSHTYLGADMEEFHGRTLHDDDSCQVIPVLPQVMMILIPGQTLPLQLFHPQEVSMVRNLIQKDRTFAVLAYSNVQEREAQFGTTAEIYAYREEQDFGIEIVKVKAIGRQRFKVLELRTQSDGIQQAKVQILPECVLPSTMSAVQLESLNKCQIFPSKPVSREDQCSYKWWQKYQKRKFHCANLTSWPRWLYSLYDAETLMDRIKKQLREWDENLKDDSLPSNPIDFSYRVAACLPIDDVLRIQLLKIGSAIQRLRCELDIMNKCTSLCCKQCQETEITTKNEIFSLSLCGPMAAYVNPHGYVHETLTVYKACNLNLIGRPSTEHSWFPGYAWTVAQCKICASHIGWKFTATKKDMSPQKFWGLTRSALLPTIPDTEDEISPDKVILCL

Chain of Protein cereblon/Interleukin-1 receptor-associated kinase 4 (Mus musculus) (Q8C7D2 whole entry, looked up, one chain of several): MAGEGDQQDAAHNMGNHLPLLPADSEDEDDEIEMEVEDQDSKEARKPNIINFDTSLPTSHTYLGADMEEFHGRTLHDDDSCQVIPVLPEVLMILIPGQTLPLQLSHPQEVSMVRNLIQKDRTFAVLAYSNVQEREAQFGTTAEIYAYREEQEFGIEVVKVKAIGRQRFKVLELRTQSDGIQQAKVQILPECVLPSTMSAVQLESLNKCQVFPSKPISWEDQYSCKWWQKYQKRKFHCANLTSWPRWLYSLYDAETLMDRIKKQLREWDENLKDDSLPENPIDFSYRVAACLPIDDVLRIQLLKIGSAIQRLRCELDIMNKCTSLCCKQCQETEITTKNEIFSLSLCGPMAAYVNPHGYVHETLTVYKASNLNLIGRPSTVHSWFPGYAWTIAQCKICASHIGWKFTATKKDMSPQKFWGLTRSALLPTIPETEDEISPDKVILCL
Chain of Dual specificity mitogen-activated protein kinase kinase 5 (Homo sapiens) (Q13163 whole entry): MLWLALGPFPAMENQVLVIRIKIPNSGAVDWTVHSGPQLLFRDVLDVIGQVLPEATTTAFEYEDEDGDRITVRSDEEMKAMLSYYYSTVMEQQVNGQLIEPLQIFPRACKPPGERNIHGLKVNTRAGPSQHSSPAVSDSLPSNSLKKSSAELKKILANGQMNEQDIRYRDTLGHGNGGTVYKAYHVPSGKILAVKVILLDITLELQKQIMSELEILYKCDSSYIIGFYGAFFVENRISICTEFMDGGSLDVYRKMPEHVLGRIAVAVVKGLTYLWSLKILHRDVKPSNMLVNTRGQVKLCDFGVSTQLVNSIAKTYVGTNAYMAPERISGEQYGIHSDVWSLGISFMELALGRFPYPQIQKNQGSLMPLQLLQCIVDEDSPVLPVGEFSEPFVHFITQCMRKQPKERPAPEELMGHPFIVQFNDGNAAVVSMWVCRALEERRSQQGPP
Chain of TRAF2 and NCK-interacting protein kinase (Homo sapiens) (Q9UKE5 whole entry, looked up): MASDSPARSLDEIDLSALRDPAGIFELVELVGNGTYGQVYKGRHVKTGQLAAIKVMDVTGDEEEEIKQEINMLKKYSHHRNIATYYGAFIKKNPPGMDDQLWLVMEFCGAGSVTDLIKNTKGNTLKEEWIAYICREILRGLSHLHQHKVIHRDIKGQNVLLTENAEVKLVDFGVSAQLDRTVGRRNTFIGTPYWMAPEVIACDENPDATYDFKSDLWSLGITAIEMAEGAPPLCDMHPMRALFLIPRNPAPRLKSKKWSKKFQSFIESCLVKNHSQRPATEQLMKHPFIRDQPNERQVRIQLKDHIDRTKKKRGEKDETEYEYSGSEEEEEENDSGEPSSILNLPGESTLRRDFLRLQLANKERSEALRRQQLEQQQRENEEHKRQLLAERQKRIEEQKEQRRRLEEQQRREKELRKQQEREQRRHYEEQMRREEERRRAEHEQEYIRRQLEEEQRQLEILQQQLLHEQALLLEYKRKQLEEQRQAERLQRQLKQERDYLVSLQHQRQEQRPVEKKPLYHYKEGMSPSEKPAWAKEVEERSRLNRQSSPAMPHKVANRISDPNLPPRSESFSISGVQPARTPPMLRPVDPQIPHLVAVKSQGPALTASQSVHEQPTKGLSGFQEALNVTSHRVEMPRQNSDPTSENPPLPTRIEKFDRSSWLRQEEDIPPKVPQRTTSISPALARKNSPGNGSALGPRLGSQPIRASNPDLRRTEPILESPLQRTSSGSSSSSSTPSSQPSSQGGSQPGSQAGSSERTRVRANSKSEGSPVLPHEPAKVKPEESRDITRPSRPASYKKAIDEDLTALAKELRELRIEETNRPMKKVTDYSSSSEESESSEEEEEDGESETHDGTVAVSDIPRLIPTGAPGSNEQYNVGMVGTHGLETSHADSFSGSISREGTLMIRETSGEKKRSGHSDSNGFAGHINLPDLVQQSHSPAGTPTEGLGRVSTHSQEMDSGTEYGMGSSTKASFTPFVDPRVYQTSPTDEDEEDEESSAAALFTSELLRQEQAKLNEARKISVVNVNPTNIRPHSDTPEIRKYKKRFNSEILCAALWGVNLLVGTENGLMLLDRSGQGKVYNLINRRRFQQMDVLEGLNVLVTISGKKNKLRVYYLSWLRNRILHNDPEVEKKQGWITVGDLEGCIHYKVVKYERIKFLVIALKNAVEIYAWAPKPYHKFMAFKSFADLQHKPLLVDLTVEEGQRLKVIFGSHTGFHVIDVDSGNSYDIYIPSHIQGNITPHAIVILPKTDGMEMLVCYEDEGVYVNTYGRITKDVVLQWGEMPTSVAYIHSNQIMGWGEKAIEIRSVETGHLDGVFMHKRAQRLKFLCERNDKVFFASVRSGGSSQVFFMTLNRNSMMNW
Chain of Tyrosine-protein kinase JAK3 (Homo sapiens) (P52333 whole entry): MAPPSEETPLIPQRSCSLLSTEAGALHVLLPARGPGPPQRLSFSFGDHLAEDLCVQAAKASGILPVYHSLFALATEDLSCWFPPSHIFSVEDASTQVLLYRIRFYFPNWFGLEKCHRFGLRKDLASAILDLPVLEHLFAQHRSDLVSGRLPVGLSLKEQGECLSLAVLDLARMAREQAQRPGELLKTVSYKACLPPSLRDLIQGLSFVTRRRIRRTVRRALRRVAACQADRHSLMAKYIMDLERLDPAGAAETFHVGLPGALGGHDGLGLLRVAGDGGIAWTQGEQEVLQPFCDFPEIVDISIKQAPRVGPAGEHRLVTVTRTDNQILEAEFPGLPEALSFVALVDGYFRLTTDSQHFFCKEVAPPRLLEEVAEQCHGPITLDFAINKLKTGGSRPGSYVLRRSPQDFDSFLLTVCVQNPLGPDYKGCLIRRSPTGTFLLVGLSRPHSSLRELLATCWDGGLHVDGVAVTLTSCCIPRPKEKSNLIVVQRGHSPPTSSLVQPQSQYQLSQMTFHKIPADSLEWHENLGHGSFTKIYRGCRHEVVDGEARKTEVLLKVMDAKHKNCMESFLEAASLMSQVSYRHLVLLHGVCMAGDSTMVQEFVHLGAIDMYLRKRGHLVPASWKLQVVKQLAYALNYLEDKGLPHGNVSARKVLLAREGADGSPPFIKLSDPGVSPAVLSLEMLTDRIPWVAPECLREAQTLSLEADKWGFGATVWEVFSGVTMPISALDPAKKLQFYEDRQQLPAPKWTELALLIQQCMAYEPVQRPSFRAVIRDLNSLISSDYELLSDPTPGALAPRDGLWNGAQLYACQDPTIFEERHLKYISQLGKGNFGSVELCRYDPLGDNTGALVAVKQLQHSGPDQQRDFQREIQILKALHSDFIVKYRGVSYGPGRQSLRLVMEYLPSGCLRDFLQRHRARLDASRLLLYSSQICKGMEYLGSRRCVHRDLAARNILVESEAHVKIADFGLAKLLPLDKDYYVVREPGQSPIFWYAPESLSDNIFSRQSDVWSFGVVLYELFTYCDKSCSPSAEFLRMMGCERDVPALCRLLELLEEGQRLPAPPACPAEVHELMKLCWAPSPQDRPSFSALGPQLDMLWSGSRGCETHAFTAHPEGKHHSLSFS
Chain of Mitogen-activated protein kinase kinase kinase kinase 4 (Homo sapiens) (O95819 2-1239 limits assumed): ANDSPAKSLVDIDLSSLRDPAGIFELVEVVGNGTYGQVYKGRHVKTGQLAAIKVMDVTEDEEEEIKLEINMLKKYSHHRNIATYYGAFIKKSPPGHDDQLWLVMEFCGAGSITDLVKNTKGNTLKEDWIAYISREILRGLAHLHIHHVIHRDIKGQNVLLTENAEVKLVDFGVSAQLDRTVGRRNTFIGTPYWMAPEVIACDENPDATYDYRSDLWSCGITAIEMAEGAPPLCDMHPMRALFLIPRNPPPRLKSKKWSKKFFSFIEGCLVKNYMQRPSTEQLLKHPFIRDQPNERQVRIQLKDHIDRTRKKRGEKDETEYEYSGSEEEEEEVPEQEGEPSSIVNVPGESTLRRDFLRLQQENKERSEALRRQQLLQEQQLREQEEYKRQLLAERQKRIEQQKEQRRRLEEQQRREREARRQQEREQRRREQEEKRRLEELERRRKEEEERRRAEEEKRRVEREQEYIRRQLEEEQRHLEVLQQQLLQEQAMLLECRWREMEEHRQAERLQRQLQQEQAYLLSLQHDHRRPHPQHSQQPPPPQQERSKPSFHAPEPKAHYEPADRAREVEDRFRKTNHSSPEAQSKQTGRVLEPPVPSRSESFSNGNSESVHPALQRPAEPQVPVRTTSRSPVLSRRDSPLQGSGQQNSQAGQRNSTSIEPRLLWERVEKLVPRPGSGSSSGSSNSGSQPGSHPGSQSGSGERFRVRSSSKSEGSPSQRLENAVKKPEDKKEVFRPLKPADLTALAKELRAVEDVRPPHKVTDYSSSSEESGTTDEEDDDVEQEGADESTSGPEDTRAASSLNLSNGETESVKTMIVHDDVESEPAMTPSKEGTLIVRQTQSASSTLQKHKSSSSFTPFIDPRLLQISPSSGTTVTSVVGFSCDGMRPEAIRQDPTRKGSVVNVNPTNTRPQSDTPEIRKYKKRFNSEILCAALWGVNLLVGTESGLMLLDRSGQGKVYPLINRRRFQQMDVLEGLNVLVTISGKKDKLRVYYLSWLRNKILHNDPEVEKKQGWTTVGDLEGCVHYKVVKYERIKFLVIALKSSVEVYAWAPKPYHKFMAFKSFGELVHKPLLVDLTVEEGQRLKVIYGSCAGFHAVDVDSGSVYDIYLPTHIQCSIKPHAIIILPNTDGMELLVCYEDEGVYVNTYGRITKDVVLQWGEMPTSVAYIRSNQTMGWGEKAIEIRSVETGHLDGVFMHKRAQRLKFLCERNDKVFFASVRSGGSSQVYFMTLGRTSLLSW

SMILES: COc1cc(N2CCN(CC(=O)NCCOCCOCCNc3cccc4c3C(=O)N(C3CCC(=O)NC3=O)C4=O)CC2)ccc1NC(=O)c1cccc(-c2ccn[nH]2)n1 (stereo not given)
Drug metabolism [1]: Metabolite_Detected

SMILES: COc1cc(N2CCOCC2)ccc1NC(=O)c1cccc(-c2ccn[nH]2)n1
inhibition [2]: Active
inhibition [3]: Active
inhibition [4]: Active
inhibition [5]: Active
inhibition [6]: Active
Activity (RAW264.7 [7]): Active
Activity [8]: 100%
inhibition [9]: inactive
inhibition [10]: inactive
inhibition [11]: inactive
inhibition [12]: inactive
inhibition [13]: inactive
inhibition [14]: inactive
inhibition [15]: inactive
inhibition [16]: inactive
inhibition [17]: > 95%
inhibition [18]: > 95%
inhibition [19]: Active
Activity (RAW264.7 [20]): Active
Activity (RAW264.7 [21]): Active
Activity (Mus musculus): Active

SMILES: COc1cc(N2CCN(C(=O)C3CN(c4ccc5c(c4)C(=O)N(C4CCC(=O)NC4=O)C5=O)C3)CC2)ccc1NC(=O)c1cccc(-c2ccn[nH]2)n1 (stereo not given)
IC50 [22]: < 0.1 µM
Activity [8]: 26%

SMILES: COc1cc(N2CCN(C(=O)CCCCCNc3cccc4c3C(=O)N(C3CCC(=O)NC3=O)C4=O)CC2)ccc1NC(=O)c1cccc(-c2ccn[nH]2)n1 (stereo not given)
IC50 [22]: < 0.1 µM
Activity [8]: 55%

SMILES: COc1cc(N2CCN(CC(=O)NCCOCCOCCOCCOCCNc3cccc4c3C(=O)N(C3CCC(=O)NC3=O)C4=O)CC2)ccc1NC(=O)c1cccc(-c2ccn[nH]2)n1 (stereo not given)
inhibition [23]: inactive

SMILES: COc1cc(N2CCN(CC(=O)NCCOCCOCCNC(=O)C3CCN(c4ccc5c(c4)C(=O)N(C4CCC(=O)NC4=O)C5=O)CC3)CC2)ccc1NC(=O)c1cccc(-c2ccn[nH]2)n1 (stereo not given)
inhibition [23]: inactive

Second part, the compound after the results:

inhibition [23]: inactive
SMILES: COc1cc(N2CCN(C(=O)C3CCN(c4ccc5c(c4)C(=O)N(C4CCC(=O)NC4=O)C5=O)CC3)CC2)ccc1NC(=O)c1cccc(-c2ccn[nH]2)n1 (stereo not given)

inhibition [23]: inactive
SMILES: COc1cc(N2CCN(CC(=O)NCCCCCCCCNc3cccc4c3C(=O)N(C3CCC(=O)NC3=O)C4=O)CC2)ccc1NC(=O)c1cccc(-c2ccn[nH]2)n1 (stereo not given)

IC50 [22]: < 0.1 µM
Activity [8]: 32%
SMILES: COc1cc(N2CCN(C(=O)CCCCCCCCCCCNc3cccc4c3C(=O)N(C3CCC(=O)NC3=O)C4=O)CC2)ccc1NC(=O)c1cccc(-c2ccn[nH]2)n1 (stereo not given)

DC50 [24]: 0.405 µM
SMILES: CC(C)Nc1cc(-n2ccc3cc(C#N)cnc32)ncc1C(=O)NC1CCC(C(=O)NCCOCCNC(=O)COc2cccc3c2C(=O)N(C2CCC(=O)NC2=O)C3=O)CC1 (stereo not given)

IC50 [22]: < 0.1 µM
Activity [8]: 63%
SMILES: COc1cc(N2CCN(CC(=O)NCCNc3cccc4c3C(=O)N(C3CCC(=O)NC3=O)C4=O)CC2)ccc1NC(=O)c1cccc(-c2ccn[nH]2)n1 (stereo not given)
